The values that follow are results of earlier work, collected in US20140044780A1, “Extended-Release Levetiracetam and Method of Preparation” (PharmTak, Inc., priority 2012, published 2014).

As to `CC[C@@H](C(N)=O)N1CCCC1=O` (single isomer, unassigned) [Levetiracetam], the Solubility in water is 104 g/100 mL.
